System: patients with advanced solid tumors
Test: Phase Ia safety, tolerability, DLT/MTD (TRAEs graded by NCI-CTCAE v4.03)
Type: in vivo
Text: This is a phase I clinical study (ClinicalTrials.gov identifier: NCT03544905), including a phase Ia study of oral CYH33 monotherapy in patients with advanced solid tumors, and a phase Ib study of oral CYH33 monotherapy focused on several specific tumors. […] The phase Ia study included dose-escalation stage and dose-expansion stage. […] The secondary outcomes also included evaluation of changes in PD biomarkers in response to CYH33 treatment (including proteomics of blood specimens at baseline and during treatment, immunocyte subpopulation ratios and molecular markers, cell free DNA in peripheral blood, and blood glucose). However, in compliance with the local human genetic resource regulations and procedures, peripheral blood samples were not obtained for PD biomarker analysis, therefore, only fasting blood glucose was obtained and used as a PD biomarker for CYH33 treatment. The exploratory objective was the relationship between the efficacy of CYH33 treatment and tumor biomarker status.
An accelerated titration design (ATD) and an mTPI-2 design were adopted to guide toxicity monitoring and dose escalation. The target DLT rate was 30%, with the acceptable toxicity probability interval of (0.25, 0.35). For the first two preset doses of 1 mg and 5 mg CYH33 in the ATD phase, if there were no grade ≥2 TRAEs during the DLT observation period, 100% dose escalation was allowed in the subsequent dose group. After entering the mTPI-2 phase, the SMC guidance was followed to determine the dose level, dosing frequency, and number of subjects in the next dose group, based on the previously obtained safety and PK data for that dose group. If necessary, it was permitted to add an additional dose level between two explored dose levels for further investigation.
During the phase Ia study, the safe and probably effective dose will be delivered to the expansion cohort to further investigate the safety, tolerability and efficacy of this dose level, while the dose escalation study can be continued simultaneously. If necessary, it is permitted to insert a new dose level between two explored dose levels for exploration. The subjects to be enrolled in the expansion cohort are patients with advanced solid tumors with PIK3CA gene mutations. When there are two or more dose groups at dose expansion simultaneously, the allocation ratio of the number of subjects in each dose group should be as close as possible to the ratio of ORR in each dose group. In principle, when the cumulative ORR at a certain dose level is <10%, the number of subjects in this dose group will be determined by the SMC. A total of approximately 60 patients are expected to be enrolled in the whole phase Ia study.
The secondary endpoints included preliminary efficacy assessments based on ORR, PFS, DoR, DCR, and clinical benefit rate, assessed per RECIST 1.1,PK parameters for CYH33 and its metabolite I27, and changes in PD biomarkers in response to CYH33 treatment.

[1] = all patients 1–60 mg QD, n = 51

`COC(=O)Nc1cc(C(F)(F)F)c(-c2nc(N3CCOCC3)c3cc(CN4CCN(S(C)(=O)=O)CC4)cn3n2)cn1` [CYH33, methyl (5-(6-((4-(methylsulfonyl)piperazin-1-yl)methyl)−4-morpholinopyrrolo[2,1-f][1,2,4]triazin-2-yl)−4-(trifluoromethyl)pyridin-2-yl)carbamate] was tested, and the “Generalized oedema, Grade ≥ 3 TRAE” value (1–20 mg QD, n = 10) was 0 n (%), the “Grade ≥ 3 TRAEs in all patients” value (1–20 mg QD, n = 10) was 2 (20.0) n (%) and the “Hyperglycemia, Grade ≥ 3 TRAE” value (1–20 mg QD, n = 10) was 2 (20.0) n (%). For the same compound, the “Hyperglycemia, all-grade TRAE” value (1–20 mg QD, n = 10) was 7 (70.0) n (%), the “Hyponatremia, all-grade TRAE” value (1–20 mg QD, n = 10) was 0 n (%) and the “Mouth ulceration, Grade ≥ 3 TRAE” value (1–20 mg QD, n = 10) was 0 n (%). The “Mouth ulceration, all-grade TRAE” value (1–20 mg QD, n = 10) was 1 (10.0) n (%), the “Nausea, Grade ≥ 3 TRAE” value (1–20 mg QD, n = 10) was 0 n (%) and the “Nausea, all-grade TRAE” value (1–20 mg QD, n = 10) was 3 (30.0) n (%). For the same compound, the “Peripheral edema, Grade ≥ 3 TRAE” value (1–20 mg QD, n = 10) was 0 n (%), the “Peripheral edema, all-grade TRAE” value (1–20 mg QD, n = 10) was 1 (10.0) n (%) and the “Rash, Grade ≥ 3 TRAE” value (1–20 mg QD, n = 10) was 0 n (%). The “Rash, all-grade TRAE” value (1–20 mg QD, n = 10) was 1 (10.0) n (%), the “TRAEs leading to death” value (1–20 mg QD, n = 10) was 0 n (%) and the “TRAEs leading to dose discontinuation” value (1–20 mg QD, n = 10) was 0 n (%). For the same compound, the “TRAEs leading to dose interruption” value (1–20 mg QD, n = 10) was 2 (20.0) n (%), the “TRAEs leading to dose reduction” value (1–20 mg QD, n = 10) was 1 (10.0) n (%) and the “TRAEs occurring in ≥ 10% of patients” value (1–20 mg QD, n = 10) was 7 (70.0) n (%). The “Treatment-related serious adverse events” value (1–20 mg QD, n = 10) was 0 n (%), the “Vomiting, all-grade TRAE” value (1–20 mg QD, n = 10) was 3 (30.0) n (%) and the “Weight loss, all-grade TRAE” value (1–20 mg QD, n = 10) was 1 (10.0) n (%). The “White blood cell count decreased, Grade ≥ 3 TRAE” value (1–20 mg QD, n = 10) was 0 n (%), the “recommended phase 2 dose (RP2D)” value (QD) was 40 mg and the “Blood glucose increased, Grade ≥ 3 TRAE” value [1] was 1 (2.0) n (%). For the same compound, the “Decreased appetite, Grade ≥ 3 TRAE” value [1] was 1 (2.0) n (%), the “Decreased appetite, all-grade TRAE” value [1] was 21 (41.2) n (%) and the “Diabetic ketosis, Grade ≥ 3 TRAE” value [1] was 1 (2.0) n (%). The “Diarrhea, Grade ≥ 3 TRAE” value [1] was 2 (3.9) n (%), the “Diarrhea, all-grade TRAE” value [1] was 15 (29.4) n (%) and the “Dizziness, Grade ≥ 3 TRAE” value [1] was 1 (2.0) n (%). For the same compound, the “Electrocardiogram QT prolonged, Grade ≥ 3 TRAE” value [1] was 1 (2.0) n (%), the “Face oedema, Grade ≥ 3 TRAE” value [1] was 1 (2.0) n (%) and the “Facial edema, all-grade TRAE” value [1] was 8 (15.7) n (%). For the same compound, the “Fatigue, Grade ≥ 3 TRAE” value [1] was 1 (2.0) n (%), the “Fatigue, all-grade TRAE” value [1] was 9 (17.6) n (%) and the “Generalized oedema, Grade ≥ 3 TRAE” value [1] was 1 (2.0) n (%). The “Grade ≥ 3 TRAEs in all patients” value [1] was 33 (64.7) n (%), the “Hyperglycemia, Grade ≥ 3 TRAE” value [1] was 30 (58.8) n (%) and the “Hyperglycemia, all-grade TRAE” value [1] was 46 (90.2) n (%). For the same compound, the “Hyponatremia, all-grade TRAE” value [1] was 6 (11.8) n (%), the “Mouth ulceration, Grade ≥ 3 TRAE” value [1] was 1 (2.0) n (%) and the “Mouth ulceration, all-grade TRAE” value [1] was 6 (11.8) n (%). For the same compound, the “Nausea, Grade ≥ 3 TRAE” value [1] was 1 (2.0) n (%), the “Nausea, all-grade TRAE” value [1] was 19 (37.3) n (%) and the “Peripheral edema, Grade ≥ 3 TRAE” value [1] was 4 (7.8) n (%). For the same compound, the “Peripheral edema, all-grade TRAE” value [1] was 13 (25.5) n (%), the “Rash, Grade ≥ 3 TRAE” value [1] was 1 (2.0) n (%) and the “Rash, all-grade TRAE” value [1] was 9 (17.6) n (%). The “TRAEs leading to death” value [1] was 0 n (%), the “TRAEs leading to dose discontinuation” value [1] was 4 (7.8) n (%) and the “TRAEs leading to dose interruption” value [1] was 36 (70.6) n (%). The “TRAEs leading to dose reduction” value [1] was 6 (11.8) n (%), the “TRAEs occurring in ≥ 10% of patients” value [1] was 47 (92.2) n (%) and the “Treatment-related serious adverse events” value [1] was 6 (11.8) n (%). For the same compound, the “Vomiting, all-grade TRAE” value [1] was 13 (25.5) n (%), the “Weight loss, all-grade TRAE” value [1] was 16 (31.4) n (%) and the “White blood cell count decreased, Grade ≥ 3 TRAE” value [1] was 1 (2.0) n (%). The “serious AEs nausea, vomiting, abdominal pain, dyspnea, hyperglycemia, pyrexia (each)” value (all patients, n = 1 each) was 2.0%, the “dose reduction due to peripheral edema, weight loss, mouth ulceration, prolonged electrocardiogram QT (each)” value (all patients, n = 1 for each) was 2.0% and the “dose reduction due to fatigue” value (all patients, n = 2) was 4.0%. The “hyperglycemia leading to dose interruption” value (all patients, n = 32 of 51) was 62.7%, the “patients with dose interruptions due to TRAEs” value (all patients, n = 36 of 51) was 70.6% and the “Decreased appetite, all-grade TRAE” value (all patients, n = 51) was 41.2%. For the same compound, the “Diarrhea, all-grade TRAE” value (all patients, n = 51) was 29.4%, the “Facial edema, all-grade TRAE” value (all patients, n = 51) was 15.7% and the “Fatigue, all-grade TRAE” value (all patients, n = 51) was 17.6%. For the same compound, the “Hyperglycemia, Grade ≥ 3 TRAE” value (all patients, n = 51) was 58.8%, the “Hyperglycemia, TRAE at any grade” value (all patients, n = 51) was 90.2% and the “Hyponatremia, all-grade TRAE” value (all patients, n = 51) was 11.8%. The “Mouth ulceration, all-grade TRAE” value (all patients, n = 51) was 11.8%, the “Nausea, all-grade TRAE” value (all patients, n = 51) was 37.3% and the “Peripheral edema, all-grade TRAE” value (all patients, n = 51) was 25.5%. For the same compound, the “Rash, all-grade TRAE” value (all patients, n = 51) was 17.6%, the “Vomiting, all-grade TRAE” value (all patients, n = 51) was 25.5% and the “Weight loss, all-grade TRAE” value (all patients, n = 51) was 31.4%. For the same compound, the “incidences of all other grade ≥3 TRAEs” value (all patients, n = 51) was < 5%, the treatment-related deaths (all patients, n = 51) was “No treatment-related deaths” and the “Peripheral edema, grade 3 TRAE” value (all patients, n = 51 (four patients)) was 7.8%. The “patients with dose reductions due to TRAEs” value (all patients, six of 51) was 11.8%, the “patients with treatment-associated serious AEs” value (all patients, six of 51) was 11.8% and the “patients who permanently discontinued CYH33 due to DLTs” value (all patients, three of 51) was 5.9%. For the same compound, the “maximum tolerated dose (MTD)” value (once daily, single agent, dose-escalation stage (mTPI-2)) was 40 mg.
